Measurements taken from patent US20060240057A1, “Termiticide compositions” (priority 2003, published 2006).
Read-outs that look alike come from different tables or passages of the source.

Columns and labels:
[1] = tested on: termites (Reticulitermes flavipes); experiment: Termite mortality by direct application (track sprayer) of combinations of bifenthrin and acetamiprid to termites; format: in vivo; conditions: for mortality at 100 ppm / mortality at 200 ppm / mortality at 10 ppm / mortality at 50 ppm: Reticulitermes flavipes, read-out: Percent Mortality
Experimental: (§1) Test compositions made up of Talstar® Termiticide/Insecticide and a 70% wettable powder of acetamiprid in distilled water were prepared that provided appropriate rates of application of combinations of bifenthrin and acetamiprid, as well as bifenthrin and acetamiprid alone.
Solutions of the test materials were applied directly to 50 termites (Reticulitermes flavipes) per petri plate using a track sprayer calibrated to deliver 1.2 ml per petri plate at 40 psi. After application, petri dishes with treated termites were inverted onto fresh petri plates containing dry filter paper. After all applications were completed, termites were then transferred to petri dishes containing moist soil with cardboard as a food source. Expired termites were removed at each reading. At 0 hours, 1 hour, 2 hours, 1 day, and 2 days after treatment (HAT or DAT, respectively), termite mortality was measured. The following calculation determined whether the combination treatments provided enhanced activity over what would be expected based on the activity of each active ingredient separately: [formula]
A and B refer to the two separate treatments of two different active ingredients at specific rates.

[2] = tested on: termite (Reticulitermes flavipes) workers; experiment: Termite mortality by soil applications of combinations of bifenthrin and acetamiprid (soil column in glass tube); format: in vivo; conditions: soil application, read-out: Percent Mortality; for mortality at 500 ppm: Acetamiprid @ 500 ppm; for mortality at 60 ppm: Bifenthrin @ 60 ppm
Experimental: as §1
Glass tubing, 13 mm in diameter, was then cut into 20 cm sections in sufficient quantity to conduct the test. Each […] section of tubing was marked at 5 cm, 8 cm, and 18 cm distances from one end of the tube designated as the bottom. Each section of tubing was packed with a sandy soil (3% wt/wt moisture content) by first placing a section of a 1 cm diameter wooden dowel into the bottom of the glass tube up to the 8 cm marking, then introducing approximately 2 cm of soil into the other end of the tube designated as the top. The soil was then gently packed into the tube from the top using a second section of the 1 cm diameter wooden dowel. The process was repeated using 2 cm aliquots of soil until the soil level was adjacent to the 18 cm marking, thereby providing a column of soil 10 cm in height. An agar plug, which was formed in a section of the 13 mm diameter glass tubing of the type used to conduct these tests, was cut into 3 cm sections. A 3 cm section of agar was then gently pushed into the bottom of each tube containing the soil until the agar plug firmly touched the soil at the 8 cm marking, thereby creating a 5 cm void in the bottom of each section of tubing. Following placement of the agar plugs in each section of tubing; two sections of applicator sticks cut in 6 cm lengths were inserted into the bottom end of each tube thereby forcing about 1 cm of each stick into the agar plug to hold the agar plug in place. Plastic caps, with an inside diameter of 13 mm and holes drilled in their centers, were placed on the bottom ends of each of the sections of tubing. A sharpened applicator stick was then inserted into the hole in each plastic cap through the agar plug to the intersection of the agar plug and the soil. The applicator stick was then gently removed in a rotating manner to provide a means for a free flow of liquid through the soil. Each section of tubing was then stood upright, and 0.5 niL aliquots of each suspension of bifenthrin, acetamiprid or combinations thereof, as prepared above, were pipetted onto the top of the soil. Upon application of the test suspensions the top of each section of tubing was covered with a small piece of aluminum foil. The tubes were then allowed to stand for about 20 hours to allow movement of the termiticide(s) downward into the soil. After this time a plastic cap of 13 mm inside diameter was placed on the top of each section of tubing. The plastic caps with the holes drilled in their centers were removed from the bottom of each section of tubing, and a piece of 0.5 cm×4 cm filter paper was then placed between the two sections of applicator sticks. Fifty termite (Reticulitermes flavipes) workers were then inserted into the 5 cm void in the bottom of each section of tubing. New plastic caps without holes drilled in their centers were placed on the bottom of each section of tubing. The sections of tubing were then stored in an upright position, with the termites located below the soil. At 1, 3, 6, 8, 10, 13, 15, 17, 20, and 22 days after treatment (DAT), termite mortality was measured.

What does the source list for C/C(=N\C#N)N(C)Cc1ccc(Cl)nc1 [Acetamiprid, acetamiprid]?
Percent Mortality ([1]; Acetamiprid @ 100 ppm, 1 HAT): 0%; Percent Mortality ([1]; Acetamiprid @ 100 ppm, 2 HAT): 0%; Percent Mortality ([1]; Acetamiprid @ 200 ppm, 1 HAT): 0%; Percent Mortality ([1]; Acetamiprid @ 200 ppm, 2 HAT): 0%; mortality at 100 ppm ([1]; 24 h, Acetamiprid @ 100 ppm, 1 DAT): 16%; mortality at 200 ppm ([1]; 24 h, Acetamiprid @ 200 ppm, 1 DAT): 35%; mortality at 100 ppm ([1]; 48 h, Acetamiprid @ 100 ppm, 2 DAT): 78%; mortality at 200 ppm ([1]; 48 h, Acetamiprid @ 200 ppm, 2 DAT): 88%; mortality at 100 ppm ([1]; Acetamiprid @ 100 ppm, 0 HAT): 0%; mortality at 200 ppm ([1]; Acetamiprid @ 200 ppm, 0 HAT): 0%; mortality at 500 ppm ([2]; 24 h, 1 DAT): 5%; mortality at 500 ppm ([2]; 72 h, 3 DAT): 84%; mortality at 500 ppm ([2]; 144 h, 6 DAT): 100%; mortality at 500 ppm ([2]; 192 h, 8 DAT): 100%; mortality at 500 ppm ([2]; 240 h, 10 DAT): 100%; mortality at 500 ppm ([2]; 312 h, 13 DAT): 100%; mortality at 500 ppm ([2]; 360 h, 15 DAT): 100%; mortality at 500 ppm ([2]; 408 h, 17 DAT): 100%; mortality at 500 ppm ([2]; 480 h, 20 DAT): 100%; mortality at 500 ppm ([2]; 528 h, 22 DAT): 100%

What does the source list for Cc1c(COC(=O)[C@@H]2[C@H](/C=C(\Cl)C(F)(F)F)C2(C)C)cccc1-c1ccccc1 (racemic) [Bifenthrin, bifenthrin]?
Percent Mortality ([1]; Bifenthrin @ 10 ppm, 1 HAT): 0%; Percent Mortality ([1]; Bifenthrin @ 10 ppm, 2 HAT): 0%; Percent Mortality ([1]; Bifenthrin @ 50 ppm, 1 HAT): 0%; Percent Mortality ([1]; Bifenthrin @ 50 ppm, 2 HAT): 0%; mortality at 10 ppm ([1]; 24 h, Bifenthrin @ 10 ppm, 1 DAT): 11%; mortality at 50 ppm ([1]; 24 h, Bifenthrin @ 50 ppm, 1 DAT): 63%; mortality at 10 ppm ([1]; 48 h, Bifenthrin @ 10 ppm, 2 DAT): 26%; mortality at 50 ppm ([1]; 48 h, Bifenthrin @ 50 ppm, 2 DAT): 96%; mortality at 10 ppm ([1]; Bifenthrin @ 10 ppm, 0 HAT): 0%; mortality at 50 ppm ([1]; Bifenthrin @ 50 ppm, 0 HAT): 0%; mortality at 60 ppm ([2]; 24 h, 1 DAT): 6%; mortality at 60 ppm ([2]; 72 h, 3 DAT): 6%; mortality at 60 ppm ([2]; 144 h, 6 DAT): 11%; mortality at 60 ppm ([2]; 192 h, 8 DAT): 13%; mortality at 60 ppm ([2]; 240 h, 10 DAT): 13%; mortality at 60 ppm ([2]; 312 h, 13 DAT): 13%; mortality at 60 ppm ([2]; 360 h, 15 DAT): 16%; mortality at 60 ppm ([2]; 408 h, 17 DAT): 16%; mortality at 60 ppm ([2]; 480 h, 20 DAT): 16%; mortality at 60 ppm ([2]; 528 h, 22 DAT): 16%
